ChEMBL document CHEMBL1201862, “PubChem BioAssay data set” (2004)
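Dose response: 5 concentrations. Exposure: 48 h. Format: 96-well plates. Endpoint: linear interpolation; highest concentration if not reached. Here, GI50 denotes the concentration required for 50% inhibition of growth.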 The source made the active and inactive calls. No stated cut-off is given here; in the data, active = GI50 up to about 1.1 µM and inactive = higher.

Tests used:
Test in all cases: inhibition of tumour cell growth, NCI panel, 48 h
[1] = tested on: 786-0
[2] = tested on: A498
[3] = tested on: ACHN
[4] = tested on: DU-145
[5] = tested on: IGROV-1
[6] = tested on: K562
[7] = tested on: MDA-MB-231
[8] = tested on: MOLT-4
[9] = tested on: NCI-H23
[10] = tested on: NCI-H460
[11] = tested on: PC-3
[12] = tested on: SF-295
[13] = tested on: SF-539
[14] = tested on: SK-MEL-2
[15] = tested on: SW-620
[16] = tested on: T47D
[17] = tested on: TK-10
[18] = tested on: UACC-257
[19] = tested on: UO-31
[20] = tested on: OVCAR-4

SMILES | GI50 [1] | GI50 [2] | GI50 [3] | GI50 [4] | GI50 [5] | GI50 [6] | GI50 [7] | GI50 [8] | GI50 [9] | GI50 [10] | GI50 [11] | GI50 [12] | GI50 [13] | GI50 [14] | GI50 [15] | GI50 [16] | GI50 [17] | GI50 [18] | GI50 [19] | GI50 [20]
O=C1CC(O)c2c(Br)sc(Br)c21 (stereo unspecified) | 4.1 µM (inactive) | 19.9 µM (inactive) | 16.2 µM (inactive) | 10.4 µM (inactive) | 15.9 µM (inactive) | 2.8 µM (inactive) | 15.2 µM (inactive) | 1.91 µM (inactive) | 22.7 µM (inactive) | 16.9 µM (inactive) | 13 µM (inactive) | 17.1 µM (inactive) | 6.5 µM (inactive) | 14 µM (inactive) | 1.93 µM (inactive) | 9.59 µM (inactive) | 3.54 µM (inactive) | 3.85 µM (inactive) | 2.61 µM (inactive) | 
CC/C(N)=N\NC(=O)OC(C)(C)C | > 100 µM (inactive) | > 100 µM (inactive) | > 100 µM (inactive) | > 100 µM (inactive) | > 100 µM (inactive) | > 100 µM (inactive) | > 100 µM (inactive) | > 100 µM (inactive) | > 100 µM (inactive) |  | > 100 µM (inactive) | > 100 µM (inactive) | > 100 µM (inactive) | > 100 µM (inactive) | > 100 µM (inactive) | > 100 µM (inactive) | > 100 µM (inactive) | > 100 µM (inactive) | > 100 µM (inactive) | > 100 µM (inactive)
CCCCCCCCCc1c(Cl)nc(Cl)nc1Cl | 13.9 µM (inactive) | 19.6 µM (inactive) | 19.5 µM (inactive) | 17.3 µM (inactive) | 13.2 µM (inactive) | 6.68 µM (inactive) | 12.3 µM (inactive) | 1.96 µM (inactive) | 9.62 µM (inactive) | 18.2 µM (inactive) | 15.7 µM (inactive) | 20.7 µM (inactive) | 18.2 µM (inactive) |  | 10.1 µM (inactive) | 10.1 µM (inactive) | 23 µM (inactive) | 19.8 µM (inactive) | 18.3 µM (inactive) | 15 µM (inactive)
COC(=O)C(CCSC)NC(=O)CNC(=O)CSc1nnc(COc2ccc(Cl)cc2)n1-c1ccccc1 (stereo unspecified) | 16 µM (inactive) | 29.1 µM (inactive) | 17 µM (inactive) | 23 µM (inactive) | 16.6 µM (inactive) | 26.5 µM (inactive) | 16 µM (inactive) | 5.36 µM (inactive) | 16.6 µM (inactive) | 17.5 µM (inactive) | 16.6 µM (inactive) |  | 18.7 µM (inactive) | 15.4 µM (inactive) | 20.3 µM (inactive) | 18.4 µM (inactive) | 17.6 µM (inactive) | 18.3 µM (inactive) | 10.4 µM (inactive) | 19.3 µM (inactive)
O=C(O)c1ccc(Nc2nc3cc(C(F)(F)F)ccc3n3cccc23)cc1 | 22.7 µM (inactive) | 42 µM (inactive) | 24.9 µM (inactive) | 49.2 µM (inactive) | 29.5 µM (inactive) | 15.3 µM (inactive) | 19.7 µM (inactive) | 25.1 µM (inactive) | 35.8 µM (inactive) | 16.1 µM (inactive) | 25.5 µM (inactive) | 27.2 µM (inactive) | 23.3 µM (inactive) | 31.3 µM (inactive) | 34.7 µM (inactive) | 17.3 µM (inactive) | 28.2 µM (inactive) | 30.2 µM (inactive) | > 100 µM (inactive) | 
COc1cc(/C=C2\N=C(C)N(n3c(-c4ccccc4)nc4ccccc4c3=O)C2=O)cc(OC)c1OC | > 100 µM (inactive) | > 100 µM (inactive) | > 100 µM (inactive) | > 100 µM (inactive) | > 100 µM (inactive) | > 100 µM (inactive) | > 100 µM (inactive) | > 100 µM (inactive) | 94.6 µM (inactive) | > 100 µM (inactive) | > 100 µM (inactive) | > 100 µM (inactive) | > 100 µM (inactive) |  | > 100 µM (inactive) | 82.4 µM (inactive) | > 100 µM (inactive) | > 100 µM (inactive) | > 100 µM (inactive) | 
COc1c2cc(C(C)(C)C)cc1Cc1cccc(c1OCc1cccc([N+](=O)[O-])c1)Cc1cc(C(C)(C)C)cc(c1OC)Cc1cccc(c1OCc1cccc([N+](=O)[O-])c1)Cc1cc(C(C)(C)C)cc(c1OC)Cc1cccc(c1OCc1cccc([N+](=O)[O-])c1)C2 | > 50 µM (inactive) | > 50 µM (inactive) | > 50 µM (inactive) | > 50 µM (inactive) | > 50 µM (inactive) | > 50 µM (inactive) | > 50 µM (inactive) | > 50 µM (inactive) | > 50 µM (inactive) | > 50 µM (inactive) | > 50 µM (inactive) | > 50 µM (inactive) | > 50 µM (inactive) | > 50 µM (inactive) | > 50 µM (inactive) | > 50 µM (inactive) |  | > 50 µM (inactive) | > 50 µM (inactive) | 
Cc1cn(C2CC(O)C(Cn3nncc3Cn3nc(Br)c(=O)[nH]c3=O)O2)c(=O)[nH]c1=O (stereo unspecified) | > 100 µM (inactive) | > 100 µM (inactive) | > 100 µM (inactive) | > 100 µM (inactive) | > 100 µM (inactive) |  | > 100 µM (inactive) | > 100 µM (inactive) | > 100 µM (inactive) |  | > 100 µM (inactive) | > 100 µM (inactive) | > 100 µM (inactive) | > 100 µM (inactive) | > 100 µM (inactive) | > 100 µM (inactive) | > 100 µM (inactive) | > 100 µM (inactive) | > 100 µM (inactive) | > 100 µM (inactive)
COc1cc(OC)c2c(=O)cc(-c3ccccc3F)[nH]c2c1 | 47.9 µM (inactive) | 48.2 µM (inactive) | > 100 µM (inactive) | 76.4 µM (inactive) | 37.5 µM (inactive) | 53.3 µM (inactive) | 76.7 µM (inactive) | 66.2 µM (inactive) | 32.9 µM (inactive) | 37.9 µM (inactive) | 47.2 µM (inactive) | 34.3 µM (inactive) |  | > 100 µM (inactive) | 59.3 µM (inactive) | 95.1 µM (inactive) | 39.9 µM (inactive) | > 100 µM (inactive) | 28.6 µM (inactive) | 14.2 µM (inactive)
CCOc1cc(/C=N/c2ccc(Oc3ccc(Cl)cc3)c(Cl)c2)ccc1O | 17 µM (inactive) | 12.4 µM (inactive) | 32.4 µM (inactive) | 50.5 µM (inactive) | 19.1 µM (inactive) |  | 19.6 µM (inactive) | 18.7 µM (inactive) | 22.7 µM (inactive) | 18.6 µM (inactive) | 31.8 µM (inactive) | 18.7 µM (inactive) | 22.8 µM (inactive) | 24.5 µM (inactive) | 29.6 µM (inactive) | 36.3 µM (inactive) | 43.1 µM (inactive) | 27.1 µM (inactive) | 11.8 µM (inactive) | 34 µM (inactive)
COc1cc(-c2c3c(cc4c2OCO4)[C@@H](Nc2ccc4c(c2)Cc2cc(N[C@@H]5c6cc7c(cc6C(c6cc(OC)c(O)c(OC)c6)[C@H]6C(=O)OC[C@H]56)OCO7)ccc2-4)[C@H]2COC(=O)[C@@H]2C3)cc(OC)c1O (stereo partly specified) | 18.5 µM (inactive) | 44.3 µM (inactive) | 47.8 µM (inactive) | 26.3 µM (inactive) | 1.56 µM (inactive) |  | 21 µM (inactive) | > 100 µM (inactive) | 76.4 µM (inactive) | 17.3 µM (inactive) | 10.9 µM (inactive) | 20.3 µM (inactive) | 0.977 µM (active) |  | 49.8 µM (inactive) | 98.2 µM (inactive) | 31 µM (inactive) | 48.8 µM (inactive) | 21.9 µM (inactive) | 
COc1cccc(C2c3cc4c(cc3OC(NNC(N)=O)C2C)OCO4)c1OC (stereo unspecified) | 4.76 µM (inactive) | 18.2 µM (inactive) | 26.9 µM (inactive) | 20.9 µM (inactive) | 23.7 µM (inactive) | 19.5 µM (inactive) | 31.7 µM (inactive) | 16.5 µM (inactive) | 30.8 µM (inactive) | 23.1 µM (inactive) | 19.4 µM (inactive) | 18.1 µM (inactive) | 15.4 µM (inactive) | 20.5 µM (inactive) | 22.6 µM (inactive) | 27.1 µM (inactive) | 28.9 µM (inactive) | 27.3 µM (inactive) | 25.6 µM (inactive) | 
Oc1cccc(/C=N/N=c2/[nH][nH]/c(=N/N=C/c3cccc(O)c3)c3ccccc23)c1 | 13.7 µM (inactive) |  | 14.3 µM (inactive) | 23.9 µM (inactive) | 11.6 µM (inactive) | 18.3 µM (inactive) | 7.89 µM (inactive) | 0.426 µM (active) | 16.2 µM (inactive) | 21.4 µM (inactive) | 15.8 µM (inactive) | 13.5 µM (inactive) | 16.9 µM (inactive) | 22.6 µM (inactive) | 14.6 µM (inactive) | 15.7 µM (inactive) | 22.1 µM (inactive) | 29.9 µM (inactive) | 15 µM (inactive) | 17.4 µM (inactive)
CC(=O)NC(=N/N=C1/C(=O)Nc2ccc(C)cc21)NC(C)=O | > 100 µM (inactive) | > 100 µM (inactive) | > 100 µM (inactive) | > 100 µM (inactive) | > 100 µM (inactive) | > 100 µM (inactive) | > 100 µM (inactive) | > 100 µM (inactive) | > 100 µM (inactive) | > 100 µM (inactive) | > 100 µM (inactive) | 52.1 µM (inactive) |  | > 100 µM (inactive) | > 100 µM (inactive) | > 100 µM (inactive) | > 100 µM (inactive) | > 100 µM (inactive) | 84.1 µM (inactive) | > 100 µM (inactive)
